PMC7785020, “A unique hormonal recognition feature of the human glucagon-like peptide-2 receptor” (Cell Research, 2020)
Where a chain is given by its changes, count along the chain named. Like-named read-outs stand apart in the source and are kept apart here. No end group written: not given here.

Tests used:
Assay type in all cases: cell-based
GLP-2R N247^ECL1A = molecular target: T1, GLP-2R N247^ECL1A (Homo sapiens, UniProt O95838, N247A); assay: cAMP accumulation, N247^ECL1A; parameters: WT (1–553); expressed in transfected cells; HEK 293T (cAMP); details: Table S5, N247A, HEK 293T, 30 min, RT, mean ± SEM, n ≥ 3 in duplicate; for Emax: read-out: cAMP Emax (% WT); for EC50: read-out: cAMP pEC50 (converted)
T1 sequence (O95838 1-553 N247A): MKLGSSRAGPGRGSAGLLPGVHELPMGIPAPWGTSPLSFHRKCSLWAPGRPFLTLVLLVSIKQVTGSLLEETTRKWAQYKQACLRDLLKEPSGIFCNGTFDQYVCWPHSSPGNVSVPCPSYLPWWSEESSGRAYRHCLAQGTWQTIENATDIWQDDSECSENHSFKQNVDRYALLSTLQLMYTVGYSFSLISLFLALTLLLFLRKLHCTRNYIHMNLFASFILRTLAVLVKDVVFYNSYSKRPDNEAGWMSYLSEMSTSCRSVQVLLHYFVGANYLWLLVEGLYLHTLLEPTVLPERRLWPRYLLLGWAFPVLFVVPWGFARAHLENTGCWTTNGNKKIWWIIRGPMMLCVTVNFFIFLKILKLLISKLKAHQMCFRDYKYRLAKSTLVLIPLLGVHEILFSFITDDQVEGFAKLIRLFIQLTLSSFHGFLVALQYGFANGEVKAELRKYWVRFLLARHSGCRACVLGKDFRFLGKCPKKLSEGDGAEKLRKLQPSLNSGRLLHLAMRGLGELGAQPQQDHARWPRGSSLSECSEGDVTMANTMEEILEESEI
Experimental: (§1) HEK 293T cells were cultured in Dulbecco’s Modified Eagle’s Medium (DMEM) (Gibco, Waltham, USA) supplemented with 10% (v/v) fetal bovine serum (FBS) (Gibco) and 1% (v/v) sodium pyruvate (Gibco) at 37 °C, 5% CO2 in a humidified incubator. They were seeded onto 6-well cell culture plates and transiently transfected with different GLP-2R constructs using Lipofectamine 2000 transfection reagent (Invitrogen, Carlsbad, CA, USA). After 24 h, the transfected cells were seeded onto 384-well microtiter plates (3000 cells per well) in HBSS supplemented with 5 mM HEPES, 0.1% (w/v) bovine serum albumin (BSA) and 0.5 mM 3-isobutyl-1- methylxanthine, and stimulated with increasing concentrations of GLP-2 for 30 min at RT. Eu and Ulight were diluted by cAMP detection buffer and added to the plates separately to terminate the reaction. Plates were incubated at RT for 60 min before measuring the fluorescence intensity at 620 nm and […] by an EnVision multilabel plate reader (PerkinElmer, Boston, USA).

GLP-2R (1-553) (WT) = molecular target: T2, GLP-2R (1-553) (WT) (Homo sapiens, UniProt O95838); assay: cAMP accumulation, WT GLP-2R; details: 30 min, RT, mean ± SEM, n ≥ 3 in duplicate; for Emax: HEK-293T; for EC50: HEK 293T, read-out: cAMP pEC50 (converted)
T2 construct: GLP-2R (1-553) (WT); expressed in transfected cells; host or cells: HEK 293T
T2 sequence (O95838 1-553): T1 sequence (O95838 1-553 N247A) with A247N
Experimental: as §1

GLP-2R R242^ECL1A = molecular target: T3, GLP-2R R242^ECL1A (Homo sapiens, UniProt O95838, R242A); assay: cAMP accumulation, R242^ECL1A; parameters: WT (1–553); expressed in transfected cells; HEK 293T (cAMP); details: 30 min, RT, mean ± SEM, n ≥ 3 in duplicate; for Emax: HEK-293T, read-out: cAMP Emax (% WT); for EC50: HEK 293T, read-out: cAMP pEC50 (converted)
T3 sequence (O95838 1-553 R242A): T1 sequence (O95838 1-553 N247A) with R242A, A247N
Experimental: as §1

Emax (GLP-2R N247^ECL1A) [%]	EC50 (GLP-2R N247^ECL1A) [nM]	Emax (GLP-2R (1-553) (WT); Table S5, GLP-2R (WT)) [%]	EC50 (GLP-2R (1-553) (WT); Table S5, GLP-2R (WT)) [nM]	Emax (GLP-2R R242^ECL1A; Table S5, R242A) [%]	EC50 (GLP-2R R242^ECL1A; Table S5, R242A) [nM]	Compound	Emax (GLP-2R (1-553) (WT); Table S3, WT) [%]	Emax (GLP-2R (1-553) (WT); Table S4, WT) [%]	Emax (GLP-2R R242^ECL1A; Table S3, R242A) [%]
103 ± 1.8	0.0501	104 ± 1.5	0.126	102 ± 3.1	1.26	HADGSFSDEMNTILDNLAAKEFIAWLVKGRG [Chimeric GLP-1/GLP-2 (20-33)]			
102 ± 2.8	1.26	103 ± 2.6	3.16	106 ± 4.9	25.1	HADGSFTSDVSSYLEGQAARDFINWLIQTKITD [Chimeric GLP-1/GLP-2 (7-19)]			
102 ± 1.8	0.0398	103 ± 1.8	0.158	105 ± 3.2	7.94	HAEGTFSDEMNTILDNLAARDFINWLIQTKITD [Chimeric GLP-1/GLP-2 (1-6)]			

Compound	Emax (GLP-2R N247^ECL1A) [%]	EC50 (GLP-2R N247^ECL1A) [nM]	Emax (GLP-2R (1-553) (WT); Table S5, GLP-2R (WT)) [%]	EC50 (GLP-2R (1-553) (WT); Table S5, GLP-2R (WT)) [nM]	Emax (GLP-2R R242^ECL1A; Table S5, R242A) [%]	EC50 (GLP-2R R242^ECL1A; Table S5, R242A) [nM]	Emax (GLP-2R (1-553) (WT); Table S3, WT) [%]	Emax (GLP-2R (1-553) (WT); Table S4, WT) [%]	Emax (GLP-2R R242^ECL1A; Table S3, R242A) [%]
CC[C@H](C)[C@H](NC(=O)[C@H](Cc1ccccc1)NC(=O)[C@H](CC(=O)O)NC(=O)[C@H](CCCNC(=N)N)NC(=O)[C@H](C)NC(=O)[C@H](C)NC(=O)[C@H](CC(C)C)NC(=O)[C@H](CC(N)=O)NC(=O)[C@H](CC(=O)O)NC(=O)[C@H](CC(C)C)NC(=O)[C@@H](NC(=O)[C@@H](NC(=O)[C@H](CC(N)=O)NC(=O)[C@H](CCSC)NC(=O)[C@H](CCC(=O)O)NC(=O)[C@H](CC(=O)O)NC(=O)[C@H](CO)NC(=O)[C@H](Cc1ccccc1)NC(=O)[C@H](CO)NC(=O)CNC(=O)[C@H](CC(=O)O)NC(=O)[C@H](C)NC(=O)[C@@H](N)Cc1c[nH]cn1)[C@@H](C)O)[C@@H](C)CC)C(=O)N[C@@H](CC(N)=O)C(=O)N[C@@H](Cc1c[nH]c2ccccc12)C(=O)N[C@@H](CC(C)C)C(=O)N[C@H](C(=O)N[C@@H](CCC(N)=O)C(=O)N[C@H](C(=O)N[C@@H](CCCCN)C(=O)N[C@H](C(=O)N[C@H](C(=O)N[C@@H](CC(=O)O)C(=O)O)[C@@H](C)O)[C@@H](C)CC)[C@@H](C)O)[C@@H](C)CC [Human GLP-2 (1–33)]	103 ± 1.8		103 ± 1.6		104 ± 2.3		101 ± 2.4	101 ± 2.9	107 ± 3.4
